The values below come from patent US8906889B2, “C-3 cycloalkenyl triterpenoids with HIV maturation inhibitory activity” (priority 2012, dated 2014).

The assay relates to recombinant NL4-3 virus (Renilla luciferase, Gag P373S). Nature of the assay: HIV cell culture assay (luciferase reporter, MT-2 cells). In kind it is cell-based. The following applies: Renilla, NL43, MT-2 cells infected for 4-5 days with NLRluc recombinants; luciferase activity. A digest of the protocol: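 MT-2 cells were infected for 4–5 days with NL4-3 carrying Renilla luciferase in place of part of nef and the Gag P373S change, in the presence of serially diluted inhibitor. Antiviral activity was quantified as luciferase signal from Dual Luciferase reagent.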

For `C=C(C)[C@@H]1CC[C@]2(NCCN3CCS(=O)(=O)CC3)CC[C@]3(C)[C@H](CC[C@@H]4[C@@]5(C)CC=C(C6=CCC(Cl)(C(=O)O)CC6)C(C)(C)[C@@H]5CC[C@]43C)[C@@H]12` (stereo partly drawn) [Example A7, 1-chloro-4-((1R,3aS,5aR,5bR,7aR,11aS,11bR,13aR,13bR)-3a-((2-(1,1-dioxidothiomorpholino)ethyl)amino)-5a,5b,8,8,11a-pentamethyl-1-(prop-1-en-2-yl)-2,3,3a,4,5,5a,5b,6,7,7a,8,11,11a,11b,12,13,13a,13b-octadecahydro-1H-cyclopenta[a]chrysen-9-yl)cyclohex-3-enecarboxylic acid], the EC50 is 2.91 nM.
The figure for `C=C(C)[C@@H]1CC[C@]2(NCCN3CCC(S(C)(=O)=O)CC3)CC[C@]3(C)[C@H](CC[C@@H]4[C@@]5(C)CC=C(C6=CCC(F)(C(=O)O)CC6)C(C)(C)[C@@H]5CC[C@]43C)[C@@H]12` (stereo partly drawn) [Example A9, 1-fluoro-4-((1R,3aS,5aR,5bR,7aR,11aS,11bR,13aR,13bR)-5a,5b,8,8,11a-pentamethyl-3a-((2-(4-(methylsulfonyl)piperidin-1-yl)ethyl)amino)-1-(prop-1-en-2-yl)-2,3,3a,4,5,5a,5b,6,7,7a,8,11,11a,11b,12,13,13a,13b-octadecahydro-1H-cyclopenta[a]chrysen-9-yl)cyclohex-3-enecarboxylic acid] is 2.84 nM; for `C=C(C)[C@@H]1CC[C@]2(NCCN3CCS(=O)(=O)CC3)CC[C@]3(C)[C@H](CC[C@@H]4[C@@]5(C)CC=C(C6=CCC(CCO)(C(=O)O)CC6)C(C)(C)[C@@H]5CC[C@]43C)[C@@H]12` (stereo partly drawn) [Example A10, 4-((1R,3aS,5aR,5bR,7aR,11aS,11bR,13aR,13bR)-3a-((2-(1,1-dioxidothiomorpholino)ethyl)amino)-5a,5b,8,8,11a-pentamethyl-1-(prop-1-en-2-yl)-2,3,3a,4,5,5a,5b,6,7,7a,8,11,11a,11b,12,13,13a,13b-octadecahydro-1H-cyclopenta[a]chrysen-9-yl)-1-(2-hydroxyethyl)cyclohex-3-enecarboxylic acid] it is 4.86 nM.
Consider `C=C(C)[C@@H]1CC[C@]2(NCCN3CCS(=O)(=O)CC3)CC[C@]3(C)[C@H](CC[C@@H]4[C@@]5(C)CC=C(C6=CCC(CO)(C(=O)O)CC6)C(C)(C)[C@@H]5CC[C@]43C)[C@@H]12` (stereo partly drawn) [Example A12, 4-((1R,3aS,5aR,5bR,7aR,11aS,11bR,13aR,13bR)-3a-((2-(1,1-dioxidothiomorpholino)ethyl)amino)-5a,5b,8,8,11a-pentamethyl-1-(prop-1-en-2-yl)-2,3,3a,4,5,5a,5b,6,7,7a,8,11,11a,11b,12,13,13a,13b-octadecahydro-1H-cyclopenta[a]chrysen-9-yl)-1-(hydroxymethyl)cyclohex-3-enecarboxylic acid], for which the EC50 was 2.46 nM.
As to `C=C(C)[C@@H]1CC[C@]2(CNCCCN3CCS(=O)(=O)CC3)CC[C@]3(C)[C@H](CC[C@@H]4[C@@]5(C)CC=C(C6=CC7(C6)CC(C(=O)O)(C(=O)O)C7)C(C)(C)[C@@H]5CC[C@]43C)[C@@H]12` [Example A14, 6-((1R,3aS,5aR,5bR,7aR,11aS,11bR,13aR,13bR)-3a-(((3-(1,1-dioxidothiomorpholino)propyl)amino)methyl)-5a,5b,8,8,11a-pentamethyl-1-(prop-1-en-2-yl)-2,3,3a,4,5,5a,5b,6,7,7a,8,11,11a,11b,12,13,13a,13b-octadecahydro-1H-cyclopenta[a]chrysen-9-yl)spiro[3.3]hept-5-ene-2,2-dicarboxylic acid], the EC50 turned out to be 190 nM.
The figure for `C=C(C)[C@@H]1CC[C@]2(NCCN3CCS(=O)(=O)CC3)CC[C@]3(C)[C@H](CC[C@@H]4[C@@]5(C)CC=C(C6=CC(C)=C(C(=O)O)CC6)C(C)(C)[C@@H]5CC[C@]43C)[C@@H]12` [Example A16, 4-((1R,3aS,5aR,5bR,7aR,11aS,11bR,13aR,13bR)-3a-((2-(1,1-dioxidothiomorpholino)ethyl)amino)-5a,5b,8,8,11a-pentamethyl-1-(prop-1-en-2-yl)-2,3,3a,4,5,5a,5b,6,7,7a,8,11,11a,11b,12,13,13a,13b-octadecahydro-1H-cyclopenta[a]chrysen-9-yl)-2-methylcyclohexa-1,3-dienecarboxylic acid] is 2.23 nM; for `C=C(C)[C@@H]1CC[C@]2(NCCN3CCS(=O)(=O)CC3)CC[C@]3(C)[C@H](CC[C@@H]4[C@@]5(C)CC=C(C6=COC(C)(C(=O)O)OC6)C(C)(C)[C@@H]5CC[C@]43C)[C@@H]12` (stereo partly drawn) [Example A17, 5-((1R,3aS,5aR,5bR,7aR,11aS,11bR,13aR,13bR)-3a-((2-(1,1-dioxidothiomorpholino)ethyl)amino)-5a,5b,8,8,11a-pentamethyl-1-(prop-1-en-2-yl)-2,3,3a,4,5,5a,5b,6,7,7a,8,11,11a,11b,12,13,13a,13b-octadecahydro-1H-cyclopenta[a]chrysen-9-yl)-2-methyl-4H-1,3-dioxine-2-carboxylic acid] it is 320 nM; for `C=C(C)[C@@H]1CC[C@]2(NCCN3CCS(=O)(=O)CC3)CC[C@]3(C)[C@H](CC[C@@H]4[C@@]5(C)CC=C(C6=CC(C(=O)O)CC6)C(C)(C)[C@@H]5CC[C@]43C)[C@@H]12` (stereo partly drawn) [Example A21, 3-((1R,3aS,5aR,5bR,7aR,11aS,11bR,13aR,13bR)-3a-((2-(1,1-dioxidothiomorpholino)ethyl)amino)-5a,5b,8,8,11a-pentamethyl-1-(prop-1-en-2-yl)-2,3,3a,4,5,5a,5b,6,7,7a,8,11,11a,11b,12,13,13a,13b-octadecahydro-1H-cyclopenta[a]chrysen-9-yl)cyclopent-2-enecarboxylic acid] it is 2.76 nM.
Consider `C=C(C)[C@@H]1CC[C@]2(NCCN3CCS(=O)(=O)CC3)CC[C@]3(C)[C@H](CC[C@@H]4[C@@]5(C)CC=C(C6=CCC(C(=O)O)C6)C(C)(C)[C@@H]5CC[C@]43C)[C@@H]12` (stereo partly drawn) [Example A22, 3-((1R,3aS,5aR,5bR,7aR,11aS,11bR,13aR,13bR)-3a-((2-(1,1-dioxidothiomorpholino)ethyl)amino)-5a,5b,8,8,11a-pentamethyl-1-(prop-1-en-2-yl)-2,3,3a,4,5,5a,5b,6,7,7a,8,11,11a,11b,12,13,13a,13b-octadecahydro-1H-cyclopenta[a]chrysen-9-yl)cyclopent-3-enecarboxylic acid], for which the EC50 was 3.53 nM.
Take `C=C(C)[C@@H]1CC[C@]2(NCCN3CCS(=O)(=O)CC3)CC[C@]3(C)[C@H](CC[C@@H]4[C@@]5(C)CC=C(C6=CCC(CC(=O)O)CC6)C(C)(C)[C@@H]5CC[C@]43C)[C@@H]12` (stereo partly drawn) [Example A25, 2-(4-((1R,3aS,5aR,5bR,7aR,11aS,11bR,13aR,13bR)-3a-((2-(1,1-dioxidothiomorpholino)ethyl)amino)-5a,5b,8,8,11a-pentamethyl-1-(prop-1-en-2-yl)-2,3,3a,4,5,5a,5b,6,7,7a,8,11,11a,11b,12,13,13a,13b-octadecahydro-1H-cyclopenta[a]chrysen-9-yl)cyclohex-3-en-1-yl)acetic acid]: the EC50 was determined as 1.31 nM.
Consider `C=C(C)[C@@H]1CC[C@]2(NCCN3CCS(=O)(=O)CC3)CC[C@]3(C)[C@H](CC[C@@H]4[C@@]5(C)CC=C(C6=CC=C(C(=O)O)CC6)C(C)(C)[C@@H]5CC[C@]43C)[C@@H]12` [Example A29, 4-((1R,3aS,5aR,5bR,7aR,11aS,11bR,13aR,13bR)-3a-((2-(1,1-dioxidothiomorpholino)ethyl)amino)-5a,5b,8,8,11a-pentamethyl-1-(prop-1-en-2-yl)-2,3,3a,4,5,5a,5b,6,7,7a,8,11,11a,11b,12,13,13a,13b-octadecahydro-1H-cyclopenta[a]chrysen-9-yl)cyclohexa-1,3-dienecarboxylic acid], for which the EC50 was 1.37 nM.
Turning to `C=C(C)[C@@H]1CC[C@]2(NCCS(=O)(=O)c3ccccc3)CC[C@]3(C)[C@H](CC[C@@H]4[C@@]5(C)CC=C(C6=CC=C(C(=O)O)CC6)C(C)(C)[C@@H]5CC[C@]43C)[C@@H]12` [Example A30, 4-((1R,3aS,5aR,5bR,7aR,11aS,11bR,13aR,13bR)-5a,5b,8,8,11a-pentamethyl-3a-((2-(phenylsulfonyl)ethyl)amino)-1-(prop-1-en-2-yl)-2,3,3a,4,5,5a,5b,6,7,7a,8,11,11a,11b,12,13,13a,13b-octadecahydro-1H-cyclopenta[a]chrysen-9-yl)cyclohexa-1,3-dienecarboxylic acid], the EC50 was 90 nM.
For the compound `C=C(C)[C@@H]1CC[C@]2(NCCN3CCS(=O)(=O)CC3)CC[C@]3(C)[C@H](CC[C@@H]4[C@@]5(C)CC=C(C6=CCC(NC(C)=O)(C(=O)O)CC6)C(C)(C)[C@@H]5CC[C@]43C)[C@@H]12` (stereo partly drawn) [Example A31, 1-acetamido-4-((1R,3aS,5aR,5bR,7aR,11aS,11bR,13aR,13bR)-3a-((2-(1,1-dioxidothiomorpholino)ethyl)amino)-5a,5b,8,8,11a-pentamethyl-1-(prop-1-en-2-yl)-2,3,3a,4,5,5a,5b,6,7,7a,8,11,11a,11b,12,13,13a,13b-octadecahydro-1H-cyclopenta[a]chrysen-9-yl)cyclohex-3-enecarboxylic acid], the 50% effective concentration (EC50) was found to be 10 nM.
